{"source": "patent US9549946B2", "about": "“Materials and methods for preventing and treating microbe-mediated epithelial disorders” (priority 2002, dated 2017)", "system": "human intestinal epithelial cells", "assay": "Epithelial transport function (Na+/H+ exchange, glucose transport)", "type": "cell-based", "from_the_text": "The resistance of PEG-cultured human intestinal epithelial cells to the barrier-disrupting effects of P. aeruginosa, as judged by the maintenance of TEER, offers a practical approach to stabilizing tight junctional barrier function in the face of a challenge from invading pathogens. Further evidence of the therapeutic value of PEG 15-20 is that epithelial transport function (Na^+/H^+ exchange, glucose transport) is unaffected by this compound.", "data": [{"substance": "polyethylene glycol [PEG 15-20]", "values": [{"measurement": "epithelial transport function (Na+/H+ exchange, glucose transport)", "value": "unaffected"}]}]}
